# Target: T1, BTK (Homo sapiens, UniProt Q06187)
# T1 construct: BTK Degradative Activity of Exemplary Compounds of the Present Disclosure in a RAMOS Cell Line; host or cells: RAMOS
# Assay: BTK degradative activity in a RAMOS cell line (Western blot)
# Assay type: cell-based
# Conditions: 6 hours after administration, read-out: RAMOS BTK Degradation DC50
# Description: RAMOS (ATCC) cells were plated in 24-well plates at 8×10^5 cells/well in the RPMI growth medium containing 10% heat-inactivated FBS and 1× Penicillin Streptomycin, and then incubated at 37° C. overnight. The following day, the test compound was administered to the cells by using 1000× compound stock solution prepared in DMSO at various concentrations. After administration of the compound, the cells were then incubated at 37° C. for 6 hours.
# Upon completion, the cells were collected by centrifugation and lysed in Laemmli sample buffer (1×; VWR International). Proteins in cell lysate were separated by SDS-PAGE and transferred to Odyssey nitrocellulose membranes (Licor) with Iblot® dry blotting transfer system (ThermoFisher). Nonspecific binding was blocked by incubating membranes with Intercept Blocking Buffer (Licor) for 1 hour at room temperature with gentle shaking. The membranes were then incubated overnight at 4° C. with primary antibodies anti-BTK (Cell signaling, cat. #8547) and anti-GAPDH (Cell signaling, cat. #5179) diluted in Intercept Blocking Buffer containing 0.1% Tween 20. After washing 3 times with TBS-T, the membranes were incubated with IRDye® 800CW goat anti-mouse IgG (1:20,000, Licor) or IRDye® 800CW goat anti-rabbit IgG (1:20,000, Licor) for 1 hour. After TBS-T washes, membranes were rinsed in TBS and scanned on Odyssey® CLx Imaging System (Licor). The bands were quantified using Image Studio™ Software (Licor).
# Table 3 summarizes the BTK degradative activity of exemplary compounds of the present disclosure in a RAMOS cell line 6 hours after administration. The DC50 values (i.e., the concentration of test compound at which 50% of the target protein is degraded) were calculated. A designation of “A” corresponds to a DC50 value less than 10 nM. A designation of “B” corresponds to a DC50 value greater than or equal to 10 nM and less than 100 nM. A designation of “C” corresponds to a DC50 value greater than or equal to 100 nM.
# T1 sequence (Q06187 whole entry): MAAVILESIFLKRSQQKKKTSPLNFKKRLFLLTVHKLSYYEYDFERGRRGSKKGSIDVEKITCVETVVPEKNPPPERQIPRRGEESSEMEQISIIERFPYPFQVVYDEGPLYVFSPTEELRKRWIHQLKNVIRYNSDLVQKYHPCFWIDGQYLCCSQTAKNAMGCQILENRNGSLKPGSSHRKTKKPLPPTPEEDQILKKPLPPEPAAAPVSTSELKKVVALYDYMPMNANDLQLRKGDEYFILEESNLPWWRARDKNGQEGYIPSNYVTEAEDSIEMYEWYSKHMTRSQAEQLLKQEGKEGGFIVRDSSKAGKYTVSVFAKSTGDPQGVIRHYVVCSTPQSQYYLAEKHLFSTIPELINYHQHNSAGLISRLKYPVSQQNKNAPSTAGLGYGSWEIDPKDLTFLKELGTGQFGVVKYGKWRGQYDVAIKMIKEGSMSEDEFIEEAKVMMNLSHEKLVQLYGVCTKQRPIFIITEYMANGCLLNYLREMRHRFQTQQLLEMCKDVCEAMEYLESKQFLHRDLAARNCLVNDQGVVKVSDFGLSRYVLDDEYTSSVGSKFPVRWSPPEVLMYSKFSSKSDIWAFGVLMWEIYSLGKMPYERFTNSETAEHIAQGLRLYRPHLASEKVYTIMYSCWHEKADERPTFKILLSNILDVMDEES
row,DC50,Structure (SMILES)
1,< 10 nM,"O=C1CC[C@H](N2Cc3cc(N4CCN(C5CC(CC(=O)N6CCC(Nc7ncnc8[nH]cc(C(=O)c9ccc(Oc%10ccccc%10)cc9Cl)c78)CC6)C5)CC4)ccc3C2=O)C(=O)N1 (stereo partly drawn) [Compound 42, (S)-3-(5-(4-(3-(2-(4-((5-(2-chloro-4-phenoxybenzoyl)-7H-pyrrolo[2,3-d]pyrimidin-4-yl)amino)piperidin-1-yl)-2-oxoethyl)cyclobutyl)piperazin-1-yl)-1-oxoisoindolin-2-yl)piperidine-2,6-dione]"
2,≥ 100 nM,"COc1ccc(C(=O)N2CCN(Cc3ccc(C(=O)N4CCC(Nc5ncnc6[nH]cc(C(=O)c7ccc(Oc8ccccc8)cc7Cl)c56)CC4)cc3)CC2)cc1N1CCC(=O)NC1=O [Compound 80, 1-(5-(4-(4-(4-((5-(2-chloro-4-phenoxybenzoyl)-7H-pyrrolo[2,3-d]pyrimidin-4-yl)amino)piperidine-1-carbonyl)benzyl)piperazine-1-carbonyl)-2-methoxyphenyl)dihydropyrimidine-2,4(1H,3H)-dione]"
3,10 to 100 nM,"O=C1CC[C@H](N2Cc3cc(N4CCN(CCCCCC(=O)N5CCC[C@@H](Nc6ncnc7[nH]cc(C(=O)c8ccc(Oc9ccccc9)cc8Cl)c67)C5)CC4)ccc3C2=O)C(=O)N1 [Compound 16, (S)-3-(5-(4-(6-((R)-3-((5-(2-chloro-4-phenoxybenzoyl)-7H-pyrrolo[2,3-d]pyrimidin-4-yl)amino)piperidin-1-yl)-6-oxohexyl)piperazin-1-yl)-1-oxoisoindolin-2-yl)piperidine-2,6-dione]"
4,10 to 100 nM,"COc1ccc(C(=O)N2CCN(CCCCCC(=O)N3CCC(Nc4ncnc5[nH]cc(C(=O)c6ccc(Oc7ccccc7)cc6Cl)c45)CC3)CC2)cc1N1CCC(=O)NC1=O [Compound 71, 1-(5-(4-(6-(4-((5-(2-chloro-4-phenoxybenzoyl)-7H-pyrrolo[2,3-d]pyrimidin-4-yl)amino)piperidin-1-yl)-6-oxohexyl)piperazine-1-carbonyl)-2-methoxyphenyl) dihydropyrimidine-2,4(1H,3H)-dione]"
5,10 to 100 nM,"O=C1CC[C@H](N2Cc3cc(N4CCN(CCCCC(=O)N5CCC[C@@H](Nc6ncnc7[nH]cc(C(=O)c8ccc(Oc9ccccc9)cc8Cl)c67)C5)CC4)ccc3C2=O)C(=O)N1 [Compound 14, (S)-3-(5-(4-(5-((R)-3-((5-(2-chloro-4-phenoxybenzoyl)-7H-pyrrolo[2,3-d]pyrimidin-4-yl)amino)piperidin-1-yl)-5-oxopentyl)piperazin-1-yl)-1-oxoisoindolin-2-yl)piperidine-2,6-dione]"
6,≥ 100 nM,"COc1ccc(C(=O)N2CCCN(Cc3ccc(C(=O)N4CCC(Nc5ncnc6[nH]cc(C(=O)c7ccc(Oc8ccccc8)cc7Cl)c56)CC4)cc3)CC2)cc1N1CCC(=O)NC1=O [Compound 79, 1-(5-(4-(4-(4-((5-(2-chloro-4-phenoxybenzoyl)-7H-pyrrolo[2,3-d]pyrimidin-4-yl)amino)piperidine-1-carbonyl)benzyl)-1,4-diazepane-1-carbonyl)-2-methoxyphenyl)dihydropyrimidine-2,4(1H,3H)-dione]"
7,< 10 nM,"O=C1CC[C@H](N2Cc3cc(N4CCN(CCCCC(=O)N5CCC(Nc6ncnc7[nH]cc(C(=O)c8ccc(Oc9ccccc9)cc8Cl)c67)CC5)CC4)ccc3C2=O)C(=O)N1 [Compound 25, (S)-3-(5-(4-(5-(4-((5-(2-chloro-4-phenoxybenzoyl)-7H-pyrrolo[2,3-d]pyrimidin-4-yl)amino)piperidin-1-yl)-5-oxopentyl)piperazin-1-yl)-1-oxoisoindolin-2-yl)piperidine-2,6-dione]"
8,10 to 100 nM,"O=C1CCC(N2C(=O)c3ccc(N4CCN(CCCCN5CCC(Nc6ncnc7[nH]cc(C(=O)c8ccc(Oc9ccccc9)cc8Cl)c67)CC5)CC4)cc3C2=O)C(=O)N1 (stereo not drawn) [Compound 27, 5-(4-(4-(4-((5-(2-chloro-4-phenoxybenzoyl)-7H-pyrrolo[2,3-d]pyrimidin-4-yl)amino)piperidin-1-yl)butyl)piperazin-1-yl)-2-(2,6-dioxopiperidin-3-yl)isoindoline-1,3-dione]"
9,10 to 100 nM,"O=C1CCC(N2C(=O)c3ccc(N4CCN(Cc5ccc(C(=O)N6CCC[C@@H](Nc7ncnc8[nH]cc(C(=O)c9ccc(Oc%10ccccc%10)cc9Cl)c78)C6)cn5)CC4)cc3C2=O)C(=O)N1 (stereo partly drawn) [Compound 9, 5-(4-((5-((R)-3-((5-(2-chloro-4-phenoxybenzoyl)-7H-pyrrolo[2,3-d]pyrimidin-4-yl)amino)piperidine-1-carbonyl)pyridin-2-yl)methyl)piperazin-1-yl)-2-(2,6-dioxopiperidin-3-yl)isoindoline-1,3-dione]"
10,10 to 100 nM,"O=C1CCC(N2C(=O)c3ccc(N4CCN(CCCN5CCC(Nc6ncnc7[nH]cc(C(=O)c8ccc(Oc9ccccc9)cc8Cl)c67)CC5)CC4)cc3C2=O)C(=O)N1 (stereo not drawn) [Compound 26, 5-(4-(3-(4-((5-(2-chloro-4-phenoxybenzoyl)-7H-pyrrolo[2,3-d]pyrimidin-4-yl)amino)piperidin-1-yl)propyl)piperazin-1-yl)-2-(2,6-dioxopiperidin-3-yl)isoindoline-1,3-dione]"
11,≥ 100 nM,"O=C1CC[C@H](N2Cc3cc(N4CCN(CCC5CCN(c6ccc(Nc7ncnc8[nH]cc(C(=O)c9ccc(Oc%10ccccc%10)cc9Cl)c78)cc6F)CC5)CC4)ccc3C2=O)C(=O)N1 [Compound 45, (S)-3-(5-(4-(2-(1-(4-((5-(2-chloro-4-phenoxybenzoyl)-7H-pyrrolo[2,3-d]pyrimidin-4-yl)amino)-2-fluorophenyl)piperidin-4-yl)ethyl)piperazin-1-yl)-1-oxoisoindolin-2-yl)piperidine-2,6-dione]"
12,10 to 100 nM,"O=C1CCC(N2C(=O)c3ccc(N4CCN(CCCC(=O)N5CCC[C@@H](Nc6ncnc7[nH]cc(C(=O)c8ccc(Oc9ccccc9)cc8Cl)c67)C5)CC4)cc3C2=O)C(=O)N1 (stereo partly drawn) [Compound 19, 5-(4-(4-((R)-3-((5-(2-chloro-4-phenoxybenzoyl)-7H-pyrrolo[2,3-d]pyrimidin-4-yl)amino)piperidin-1-yl)-4-oxobutyl)piperazin-1-yl)-2-(2,6-dioxopiperidin-3-yl)isoindoline-1,3-dione]"
13,≥ 100 nM,"O=C1CCC(N2C(=O)c3ccc(N4CCN(CCCCCCN5CCC[C@@H](Nc6ncnc7[nH]cc(C(=O)c8ccc(Oc9ccccc9)cc8Cl)c67)C5)CC4)cc3C2=O)C(=O)N1 (stereo partly drawn) [Compound 15, 5-(4-(6-((R)-3-((5-(2-chloro-4-phenoxybenzoyl)-7H-pyrrolo[2,3-d]pyrimidin-4-yl)amino)piperidin-1-yl)hexyl)piperazin-1-yl)-2-(2,6-dioxopiperidin-3-yl)isoindoline-1,3-dione]"
14,10 to 100 nM,"O=C1CCC(N2C(=O)c3ccc(N4CCN(CCCCCC(=O)N5CCC[C@@H](Nc6ncnc7[nH]cc(C(=O)c8ccc(Oc9ccccc9)cc8Cl)c67)C5)CC4)cc3C2=O)C(=O)N1 (stereo partly drawn) [Compound 7, 5-(4-(6-((R)-3-((5-(2-chloro-4-phenoxybenzoyl)-7H-pyrrolo[2,3-d]pyrimidin-4-yl)amino)piperidin-1-yl)-6-oxohexyl)piperazin-1-yl)-2-(2,6-dioxopiperidin-3-yl)isoindoline-1,3-dione]"
15,≥ 100 nM,"O=C1CCC(N2Cc3c(C#CCCCCCCC(=O)N4CCC(Nc5ncnc6[nH]cc(C(=O)c7ccc(Oc8ccccc8)cc7Cl)c56)CC4)cccc3C2=O)C(=O)N1 (stereo not drawn) [Compound 39, 3-(4-(9-(4-((5-(2-chloro-4-phenoxybenzoyl)-7H-pyrrolo[2,3-d]pyrimidin-4-yl)amino)piperidin-1-yl)-9-oxonon-1-yn-1-yl)-1-oxoisoindolin-2-yl)piperidine-2,6-dione]"
16,≥ 100 nM,"O=C1CCC(N2C(=O)c3cccc(C#CCCCCC(=O)N4CCC(Nc5ncnc6[nH]cc(C(=O)c7ccc(Oc8ccccc8)cc7Cl)c56)CC4)c3C2=O)C(=O)N1 (stereo not drawn) [Compound 36, 4-(7-(4-((5-(2-chloro-4-phenoxybenzoyl)-7H-pyrrolo[2,3-d]pyrimidin-4-yl)amino)piperidin-1-yl)-7-oxohept-1-yn-1-yl)-2-(2,6-dioxopiperidin-3-yl)isoindoline-1,3-dione]"
17,10 to 100 nM,"O=C1CCC(N2C(=O)c3ccc(N4CCN(C5CC(CC(=O)N6CCC(Nc7ncnc8[nH]cc(C(=O)c9ccc(Oc%10ccccc%10)cc9Cl)c78)CC6)C5)CC4)cc3C2=O)C(=O)N1 (stereo not drawn) [Compound 37, 5-(4-(3-(2-(4-((5-(2-chloro-4-phenoxybenzoyl)-7H-pyrrolo[2,3-d]pyrimidin-4-yl)amino)piperidin-1-yl)-2-oxoethyl)cyclobutyl)piperazin-1-yl)-2-(2,6-dioxopiperidin-3-yl)isoindoline-1,3-dione]"
18,10 to 100 nM,"O=C1CCC(N2C(=O)c3ccc(N4CCN(CCCCCC(=O)N5CCC(Nc6ncnc7[nH]cc(C(=O)c8ccc(Oc9ccccc9)cc8Cl)c67)CC5)CC4)cc3C2=O)C(=O)N1 (stereo not drawn) [Compound 28, 5-(4-(6-(4-((5-(2-chloro-4-phenoxybenzoyl)-7H-pyrrolo[2,3-d]pyrimidin-4-yl)amino)piperidin-1-yl)-6-oxohexyl)piperazin-1-yl)-2-(2,6-dioxopiperidin-3-yl)isoindoline-1,3-dione]"
